Results as given in patent US4294958A, “Water-soluble salts of trimethylammonium derivatives of polyene macrolide antibiotics and the preparation thereof” (Politechnika Gdanska, priority 1978, dated 1981).
Values after ≈ are worked out from the molar mass of the structure shown. Read-outs that look alike come from different tables or passages of the source.

Columns and labels:
Type in all cases: cell-based
[1] = haemolytic activity (hemoglobin, determined spectrophotometrically)
Description: (§1) EH50 means the concentration of the substance causing in conditions
(§2) 50% of hemoglobin determined spectrophotometrically at λ = 550 nm.

[2] = system: Saccharomyces cerevisiae cells; assay: antifungal activity: inhibition of growth of Saccharomyces cerevisiae in liquid standard medium
Protocol: IC50 means the concentration of the substance causing 50% inhibitio
of the growth of Saccharomyces cerevisiae cells in liquid standard medium
determined spectrophotometrically at λ = 600 nm after 24 hours

hemoglobin = assay: haemolytic activity (hemoglobin, determined spectrophotometrically)
Description: as §1, §2

[3] = in vitro haemolysis, 50% of hemoglobin, λ = 550 nm, read-out: EH50 (the source's name)
[4] = 50% inhibition of growth of Saccharomyces cerevisiae, liquid standard medium, λ = 600 nm, 24 hours, 28° C., read-out: IC50
[5] = in vitro haemolysis, 50% of hemoglobin, λ = 550 nm
[6] = 50% inhibition of growth of Saccharomyces cerevisiae, liquid standard medium, λ = 600 nm, 24 hours, 28° C.

Compound | EH50 (hemoglobin; [5]) [µg/mL] | IC50 [2, 6] [µg/mL] | other results
C[C@@H]1[C@H](O)[C@@H](C)/C=C/C=C/C=C/C=C/C=C/C=C/C=C/[C@H](O[C@@H]2O[C@H](C)[C@@H](O)[C@H](N)[C@@H]2O)C[C@@H]2O[C@](O)(C[C@@H](O)C[C@@H](O)[C@H](O)CC[C@@H](O)C[C@@H](O)CC(=O)O[C@H]1C)C[C@H](O)[C@H]2C(=O)O [Amphotericin B, amphotericin B] | – | – | HC50 [1, 3]: 5 µg/mL; IC50 ([2]; Saccharomyces cerevisiae, 24 h): 0.03 µg/mL (≈ 0.0325 µM)
COc1cc2c(c3oc(-c4ccccc4)cc(=O)c13)C=CC(C)(C)O2 [Candidin, candidin] | – | – | HC50 [1, 3]: 20 µg/mL; IC50 [2, 4]: 0.054 µg/mL (≈ 0.161 µM)
COC(=O)[C@H]1[C@@H]2C[C@@H](O[C@@H]3O[C@H](C)[C@@H](O)[C@H]([N+](C)(C)C)[C@@H]3O)/C=C/C=C/C=C/C=C/C=C/C=C/C=C/[C@H](C)[C@@H](O)[C@@H](C)[C@H](C)OC(=O)C[C@H](O)C[C@H](O)CC[C@@H](O)[C@H](O)C[C@H](O)C[C@](O)(C[C@@H]1O)O2 [DMS-Amphotericin B, N,N,N-trimethylamphotericin B methyl ester] | – | – | HC50 [1, 3]: 5 µg/mL; IC50 [2, 4]: 0.08 µg/mL
C[C@@H]1[C@H](O)[C@@H](C)/C=C/C=C/C=C/C=C/C=C/C=C/C=C/[C@H](O[C@@H]2O[C@H](C)[C@@H](O)[C@H](N)[C@@H]2O)C[C@@H]2O[C@](O)(C[C@@H](O)[C@H](O)CC[C@@H](O)CC(=O)C[C@@H](O)CC(=O)O[C@H]1C)C[C@H](O)[C@H]2C(=O)O [Mycoheptin, mycoheptin] | 15 | 0.05 (≈ 0.0542 µM) | –
C[C@@H]1[C@H](O)[C@@H](C)/C=C/C=C/CC/C=C/C=C/C=C/C=C/C(O[C@H]2O[C@H](C)[C@@H](O)[C@H](N)[C@@H]2O)CC2O[C@](O)(CC(O)C(O)CCC(O)CC(O)CC(O)CC(=O)O[C@H]1C)CC(O)C2C(=O)O (stereo partly drawn) [Nystatin, nystatin] | 50 | 0.1 (≈ 0.108 µM) | –
C[C@@H]1C/C=C/C=C/C=C/C=C/[C@H](O[C@@H]2O[C@H](C)[C@@H](O)[C@H](N)[C@@H]2O)C[C@@H]2O[C@](O)(C[C@@H](O)C[C@H]3O[C@@H]3/C=C/C(=O)O1)C[C@H](O)[C@H]2C(=O)O [Pimaricin, pimaricin] | – | – | HC50 [1]: 100 µg/mL; IC50 [2, 4]: 1 µg/mL (≈ 1.5 µM)
CCC[C@@H]1C/C=C/C=C/C=C/C=C/[C@H](O[C@@H]2O[C@H](C)[C@@H](O)[C@H](N)[C@@H]2O)C[C@@H]2O[C@](O)(C[C@@H](O)CCCC(=O)C[C@@H](O)[C@H](CC)C(=O)O1)C[C@H](O)[C@H]2C(=O)O [Rimocidin, rimocidin] | 30 | 1.5 (≈ 1.95 µM) | –
N,N,N-dimethyl-mycoheptin methyl ester [DMS-Mycoheptin] | 65 | 0.2 | –
N,N,N-trimethylcandidin methyl ester [DMS-Candidin] | 70 | 0.15 | –
N,N,N-trimethylnystatin methyl ester [DMS-Nystatin] | 100 | 0.25 | –
N,N,N-trimethylpolifungin methyl ester [DMS-Polifungin] | – | 0.15 | EH50 (hemoglobin): 120 µg/mL
N,N,N-trimethylrimocidin methyl ester [DMS-Rimocidin] | 50 | 2.5 | –
aureofacin | 0.35 | 0.005 | –
candicidin | 2.5 | 0.005 | –
levorin | 2.5 | 0.007 | –
perimycin | 5 | 0.002 | –
polyfungin [Polifungin] | – | 0.08 | EH50 (hemoglobin): 20 µg/mL
trichomycin | 3 | 0.005 | –
